How the values were obtained:
lambsquarters = assay: Test B preemergence/postemergence greenhouse plant response rating 0 to 10; type: in vivo, Chenopodium album; details: 0 to 10 scale
Summary of the method: (§1)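 Test chemicals were sprayed onto freshly planted seed and, concurrently, onto young plants between the one and four leaf stage. After a twelve- to sixteen-day greenhouse period, each species was visually compared with untreated controls.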

chickweed = assay: Test C preemergence/postemergence greenhouse plant response rating 0 to 100; type: in vivo, Stellaria media; details: POSTEMERGENCE
Summary of the method: (§2)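 Compounds in non-phytotoxic solvent applied preemergence to sandy loam one day after planting, postemergence at the 1–4 leaf stage, or to ~2.5 cm floodwater over silt loam.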

morningglory [1] = assay: as above; type: in vivo, Ipomoea hederacea; details: POSTEMERGENCE
Summary of the method: as §2

rape = assay: as above; type: in vivo, Brassica napus; details: POSTEMERGENCE
Summary of the method: as §2

barley [2] = assay: Test B preemergence/postemergence greenhouse plant response rating 0 to 10; type: in vivo, Hordeum vulgare; details: 0 to 10 scale
Summary of the method: as §1

bedstraw = assay: as above; type: in vivo, Galium aparine; details: POSTEMERGENCE, 0 to 10 scale
Summary of the method: as §1

soybean [3] = assay: Test C preemergence/postemergence greenhouse plant response rating 0 to 100; type: in vivo, Glycine max; details: POSTEMERGENCE
Summary of the method: as §2

barley [4] = assay: as above; type: in vivo, Hordeum vulgare; details: POSTEMERGENCE
Summary of the method: as §2

velvetleaf = assay: Test B preemergence/postemergence greenhouse plant response rating 0 to 10; type: in vivo, Abutilon theophrasti; details: 0 to 10 scale
Summary of the method: as §1

blackgrass = assay: Test C preemergence/postemergence greenhouse plant response rating 0 to 100; type: in vivo, Alopecurus myosuroides; details: POSTEMERGENCE
Summary of the method: as §2

rice = assay: Test C flood test plant response rating 0 to 100; type: in vivo, Oryza sativa
Summary of the method: as §2

cheatgrass = assay: Test B preemergence/postemergence greenhouse plant response rating 0 to 10; type: in vivo, Bromus secalinus; details: 0 to 10 scale
Summary of the method: as §1

soybean [5] = assay: as above; type: in vivo, Glycine max; details: 0 to 10 scale
Summary of the method: as §1

giant foxtail [6] = assay: as above; type: in vivo, Setaria faberii; details: 0 to 10 scale
Summary of the method: as §1

cocklebur = assay: as above; type: in vivo, Xanthium pensylvanicum; details: 0 to 10 scale
Summary of the method: as §1

morningglory [7] = assay: as above; type: in vivo, Ipomoea hederacea; details: 0 to 10 scale
Summary of the method: as §1

sorghum = assay: Test C preemergence/postemergence greenhouse plant response rating 0 to 100; type: in vivo, Sorghum bicolor; details: POSTEMERGENCE
Summary of the method: as §2

giant foxtail [8] = assay: as above; type: in vivo, Setaria faberii; details: POSTEMERGENCE
Summary of the method: as §2

C=CCN1C(=O)COc2cc(F)c(-c3nn4c(c3Cl)CCCC4)cc21 [Compound 33]
Plant response rating, Lambsquarter (lambsquarters; POSTEMERGENCE, Rate 10 g/ha): 9 | Plant response rating, Lambsquarter (lambsquarters; POSTEMERGENCE, Rate 50 g/ha): 10 | Plant response rating, Lambsquarter (lambsquarters; PREEMERGENCE, Rate 50 g/ha): 10 | Plant response rating, Chickweed (chickweed; 62 g/ha, 0 to 100 scale): 100 | Plant response rating (0 to 100), Chickweed (chickweed; Rate 1 g/ha): 40 | Plant response rating (0 to 100), Chickweed (chickweed; Rate 4 g/ha): 60 | Plant response rating (0 to 100), Chickweed (chickweed; Rate 16 g/ha): 85 | Plant response rating, Morningglory (morningglory [1]; 62 g/ha, 0 to 100 scale): 100 | Plant response rating (0 to 100), Morningglory (morningglory [1]; Rate 1 g/ha): 50 | Plant response rating (0 to 100), Morningglory (morningglory [1]; Rate 4 g/ha): 70 | Plant response rating (0 to 100), Morningglory (morningglory [1]; Rate 16 g/ha): 90 | Plant response rating, Rape (rape; 62 g/ha, 0 to 100 scale): 100 | Plant response rating (0 to 100), Rape (rape; Rate 1 g/ha): 100 | Plant response rating (0 to 100), Rape (rape; Rate 4 g/ha): 100 | Plant response rating (0 to 100), Rape (rape; Rate 16 g/ha): 100 | Plant response rating, Barley (barley [2]; POSTEMERGENCE, Rate 10 g/ha): 4 | Plant response rating, Barley (barley [2]; POSTEMERGENCE, Rate 50 g/ha): 4 | Plant response rating, Barley (barley [2]; PREEMERGENCE, Rate 10 g/ha): 0 | Plant response rating, Barley (barley [2]; PREEMERGENCE, Rate 50 g/ha): 1 | Plant response rating, Bedstraw (bedstraw; Rate 10 g/ha): 8 | Plant response rating, Bedstraw (bedstraw; Rate 50 g/ha): 9 | Plant response rating, Soybean (soybean [3]; 62 g/ha, 0 to 100 scale): 100 | Plant response rating (0 to 100), Soybean (soybean [3]; Rate 1 g/ha): 30 | Plant response rating (0 to 100), Soybean (soybean [3]; Rate 4 g/ha): 40 | Plant response rating (0 to 100), Soybean (soybean [3]; Rate 16 g/ha): 80 | Plant response rating Barley Igri (barley [4]; 62 g/ha, 0 to 100 scale): 60 | Plant response rating (0 to 100), Barley Igri (barley [4]; Rate 1 g/ha): 20 | Plant response rating (0 to 100), Barley Igri (barley [4]; Rate 4 g/ha): 40 | Plant response rating (0 to 100), Barley Igri (barley [4]; Rate 16 g/ha): 50 | Plant response rating, Velvetleaf (velvetleaf; POSTEMERGENCE, Rate 10 g/ha): 10 | Plant response rating, Velvetleaf (velvetleaf; POSTEMERGENCE, Rate 50 g/ha): 9 | Plant response rating, Velvetleaf (velvetleaf; PREEMERGENCE, Rate 50 g/ha): 9 | Plant response rating, Blackgrass (blackgrass; 62 g/ha, 0 to 100 scale): 60 | Plant response rating (0 to 100), Blackgrass (blackgrass; Rate 1 g/ha): 30 | Plant response rating (0 to 100), Blackgrass (blackgrass; Rate 4 g/ha): 50 | Plant response rating (0 to 100), Blackgrass (blackgrass; Rate 16 g/ha): 50 | Plant response rating (0 to 100), Rice Japonica (rice; POSTEMERGENCE section, flood test, Rate 1 g/ha): 20 | Plant response rating (0 to 100), Rice Japonica (rice; POSTEMERGENCE section, flood test, Rate 4 g/ha): 50 | Plant response rating (0 to 100), Rice Japonica (rice; Rate 16 g/ha, under POSTEMERGENCE head (flood test species)): 60 | Plant response rating Rice Japonica (rice; flood test species listed under POSTEMERGENCE, 62 g/ha, 0 to 100 scale): 85 | Plant response rating, Cheatgrass (cheatgrass; POSTEMERGENCE, Rate 10 g/ha): 4 | Plant response rating, Cheatgrass (cheatgrass; POSTEMERGENCE, Rate 50 g/ha): 4 | Plant response rating, Cheatgrass (cheatgrass; PREEMERGENCE, Rate 10 g/ha): 3 | Plant response rating, Cheatgrass (cheatgrass; PREEMERGENCE, Rate 50 g/ha): 6 | Plant response rating, Soybean (soybean [5]; POSTEMERGENCE, Rate 10 g/ha): 8 | Plant response rating, Soybean (soybean [5]; POSTEMERGENCE, Rate 50 g/ha): 9 | Plant response rating, Soybean (soybean [5]; PREEMERGENCE, Rate 50 g/ha): 2 | Plant response rating, Giant foxtail (giant foxtail [6]; POSTEMERGENCE, Rate 10 g/ha): 4 | Plant response rating, Giant foxtail (giant foxtail [6]; POSTEMERGENCE, Rate 50 g/ha): 4 | Plant response rating, Giant foxtail (giant foxtail [6]; PREEMERGENCE, Rate 10 g/ha): 2 | Plant response rating, Giant foxtail (giant foxtail [6]; PREEMERGENCE, Rate 50 g/ha): 7 | Plant response rating, Cocklebur (cocklebur; POSTEMERGENCE, Rate 10 g/ha): 10 | Plant response rating, Cocklebur (cocklebur; POSTEMERGENCE, Rate 50 g/ha): 10 | Plant response rating, Cocklebur (cocklebur; PREEMERGENCE, Rate 10 g/ha): 0 | Plant response rating, Cocklebur (cocklebur; PREEMERGENCE, Rate 50 g/ha): 5 | Plant response rating, Morningglory (morningglory [7]; POSTEMERGENCE, Rate 10 g/ha): 9 | Plant response rating, Morningglory (morningglory [7]; POSTEMERGENCE, Rate 50 g/ha): 10 | Plant response rating, Morningglory (morningglory [7]; PREEMERGENCE, Rate 50 g/ha): 10 | Plant response rating, Sorghum (sorghum; 62 g/ha, 0 to 100 scale): 40 | Plant response rating (0 to 100), Sorghum (sorghum; Rate 1 g/ha): 0 | Plant response rating (0 to 100), Sorghum (sorghum; Rate 4 g/ha): 20 | Plant response rating (0 to 100), Sorghum (sorghum; Rate 16 g/ha): 20 | Plant response rating, Giant foxtail (giant foxtail [8]; 62 g/ha, 0 to 100 scale): 70 | Plant response rating (0 to 100), Giant foxtail (giant foxtail [8]; Rate 1 g/ha): 0 | Plant response rating (0 to 100), Giant foxtail (giant foxtail [8]; Rate 4 g/ha): 0 | Plant response rating (0 to 100), Giant foxtail (giant foxtail [8]; Rate 16 g/ha): 20

From patent US6358885B1, “Substituted phenylheterocyclic herbicides” (Mississippi State University, priority 1992, dated 2002)
